# Laboratory results reported in patent US20110143939A1, “QUINOXALIN-2-ONE DERIVATIVES, COMPOSITIONS WHICH PROTECT USEFUL PLANTS AND COMPRISE THESE DERIVATIVES, AND PROCESSES FOR THEIR PREPARATION AND THEIR USE” (Bayer CropScience AG, priority 2004, published 2011).
row,Structure (SMILES),melting point [°C]
1,Cn1c(=O)c(-c2ccccc2)nc2cc3c(cc21)OC(F)(F)O3,165
2,O=c1[nH]c2cc3c(cc2nc1-c1ccccc1)OC(F)(F)O3,291 to 292
3,CS(=O)(=O)NCCn1c(=O)c(-c2cccs2)nc2ccccc21,236 to 237
4,O=c1c(-c2cccs2)nc2ccccc2n1CC1CCCO1 (centres unmarked),123
5,O=c1c(-c2cccs2)nc2ccccc2n1CC1CCC1,103

# Continued, values first:
row,melting point [°C],Structure (SMILES)
1,164,Nn1c(=O)c(-c2cccs2)nc2ccccc21
2,> 250,Cl.NCCn1c(=O)c(-c2cccs2)nc2ccccc21
3,113,Cn1c(=S)c(-c2cccs2)nc2ccccc21
